Laboratory results: PMC2999882 (Molecular pharmacology, 2008)
Read-outs that look alike come from different tables or passages of the source.

Columns and labels:
5HT3 receptors [1] = biological target: T1, 5HT3 receptors (Homo sapiens, UniProt P46098); details: cited from earlier work
T1 sequence (P46098 24-478): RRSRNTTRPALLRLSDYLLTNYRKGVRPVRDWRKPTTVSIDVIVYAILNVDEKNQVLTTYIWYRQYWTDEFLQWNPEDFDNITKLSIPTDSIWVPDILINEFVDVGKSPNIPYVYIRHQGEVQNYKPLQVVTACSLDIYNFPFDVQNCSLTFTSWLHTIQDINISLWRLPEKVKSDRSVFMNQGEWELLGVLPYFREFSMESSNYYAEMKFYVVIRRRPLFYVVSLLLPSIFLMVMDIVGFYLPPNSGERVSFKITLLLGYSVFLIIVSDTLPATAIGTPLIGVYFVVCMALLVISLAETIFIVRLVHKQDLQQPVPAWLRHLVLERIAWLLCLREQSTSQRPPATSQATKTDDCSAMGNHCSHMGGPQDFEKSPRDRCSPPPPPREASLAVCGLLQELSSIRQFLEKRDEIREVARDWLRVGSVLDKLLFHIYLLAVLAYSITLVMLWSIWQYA

α7 nAChR = α7 nAChR (Homo sapiens, UniProt P36544)
α3β4 nAChR = α3β4 nAChR (Homo sapiens, UniProt P30926+P32297)
α4β2 nAChR [2] = biological target: T2, α4β2 nAChR (Homo sapiens, UniProt P17787+P43681); assay: cell-based; type: cell-based
α4β2 nAChR [3] = biological target: T2, α4β2 nAChR; type: cell-based
[4] = biological target: T3, muscle type (α1β1εδ) nAChR (Homo sapiens, UniProt P02708+Q04844+Q07001); type: cell-based
[5] = biological target: T3, muscle type (α1β1εδ) nAChR; type: cell-based; remark: listed apart in the source
5HT3 receptors [6] = biological target: T1, 5HT3 receptors; type: cell-based
5HT3 receptors [7] = biological target: T1, 5HT3 receptors; type: cell-based; remark: listed apart in the source

T2 sequence (P43681 29-627 limits assumed): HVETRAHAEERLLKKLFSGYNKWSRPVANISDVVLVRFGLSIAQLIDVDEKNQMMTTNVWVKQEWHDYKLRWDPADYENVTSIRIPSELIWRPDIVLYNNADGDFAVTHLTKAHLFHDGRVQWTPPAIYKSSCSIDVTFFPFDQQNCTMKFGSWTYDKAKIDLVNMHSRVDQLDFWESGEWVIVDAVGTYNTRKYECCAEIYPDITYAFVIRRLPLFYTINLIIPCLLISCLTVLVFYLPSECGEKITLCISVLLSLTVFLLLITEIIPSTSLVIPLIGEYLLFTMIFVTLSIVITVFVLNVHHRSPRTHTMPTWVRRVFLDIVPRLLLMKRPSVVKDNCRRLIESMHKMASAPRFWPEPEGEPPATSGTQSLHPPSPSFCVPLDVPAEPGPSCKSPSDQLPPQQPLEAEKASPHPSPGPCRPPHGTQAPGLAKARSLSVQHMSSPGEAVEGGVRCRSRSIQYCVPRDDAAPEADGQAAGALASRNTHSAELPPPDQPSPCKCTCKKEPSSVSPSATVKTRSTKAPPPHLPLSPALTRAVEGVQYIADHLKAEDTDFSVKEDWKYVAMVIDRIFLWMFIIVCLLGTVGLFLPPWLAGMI
T2 sequence (P17787 26-502): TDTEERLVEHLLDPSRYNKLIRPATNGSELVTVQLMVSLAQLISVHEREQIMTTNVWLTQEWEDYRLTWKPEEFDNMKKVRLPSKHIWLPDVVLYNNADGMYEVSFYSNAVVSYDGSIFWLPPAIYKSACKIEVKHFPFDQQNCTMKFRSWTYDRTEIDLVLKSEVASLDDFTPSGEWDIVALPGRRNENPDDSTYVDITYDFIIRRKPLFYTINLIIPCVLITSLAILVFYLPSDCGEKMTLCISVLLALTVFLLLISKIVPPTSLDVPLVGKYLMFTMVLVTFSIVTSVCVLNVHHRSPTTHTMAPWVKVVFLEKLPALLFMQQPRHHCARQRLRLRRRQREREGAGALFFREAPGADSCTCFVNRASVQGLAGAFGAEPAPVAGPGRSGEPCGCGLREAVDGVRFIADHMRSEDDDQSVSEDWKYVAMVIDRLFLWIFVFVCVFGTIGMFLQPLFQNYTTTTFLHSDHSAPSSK
α3β4 nAChR, sequence (P32297 32-505): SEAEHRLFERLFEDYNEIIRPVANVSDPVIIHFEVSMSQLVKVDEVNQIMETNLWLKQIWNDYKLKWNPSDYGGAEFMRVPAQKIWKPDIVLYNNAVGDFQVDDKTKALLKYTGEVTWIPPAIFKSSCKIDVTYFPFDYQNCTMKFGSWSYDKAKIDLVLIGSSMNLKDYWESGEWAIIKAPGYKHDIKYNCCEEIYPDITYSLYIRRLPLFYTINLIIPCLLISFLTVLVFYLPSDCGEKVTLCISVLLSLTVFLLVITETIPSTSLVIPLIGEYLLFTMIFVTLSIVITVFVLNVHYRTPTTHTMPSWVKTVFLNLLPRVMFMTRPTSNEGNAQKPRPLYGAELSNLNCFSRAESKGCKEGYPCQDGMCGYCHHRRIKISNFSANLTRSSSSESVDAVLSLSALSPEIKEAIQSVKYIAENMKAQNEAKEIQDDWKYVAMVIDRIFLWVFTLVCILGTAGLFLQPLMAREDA
α3β4 nAChR, sequence (P30926 22-498): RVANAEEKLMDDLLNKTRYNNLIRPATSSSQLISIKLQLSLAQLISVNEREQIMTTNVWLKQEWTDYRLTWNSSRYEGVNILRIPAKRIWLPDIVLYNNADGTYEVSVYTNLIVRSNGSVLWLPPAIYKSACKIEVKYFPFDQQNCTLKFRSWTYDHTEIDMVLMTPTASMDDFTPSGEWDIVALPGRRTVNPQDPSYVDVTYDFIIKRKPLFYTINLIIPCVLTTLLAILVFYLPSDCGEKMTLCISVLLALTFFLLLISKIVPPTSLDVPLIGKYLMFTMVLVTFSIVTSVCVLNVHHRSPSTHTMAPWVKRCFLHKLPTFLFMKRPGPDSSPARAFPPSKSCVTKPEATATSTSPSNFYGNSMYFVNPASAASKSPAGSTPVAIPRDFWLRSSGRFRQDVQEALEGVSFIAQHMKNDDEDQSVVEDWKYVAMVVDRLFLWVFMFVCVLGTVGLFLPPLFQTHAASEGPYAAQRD
T3 sequence (P02708 21-457): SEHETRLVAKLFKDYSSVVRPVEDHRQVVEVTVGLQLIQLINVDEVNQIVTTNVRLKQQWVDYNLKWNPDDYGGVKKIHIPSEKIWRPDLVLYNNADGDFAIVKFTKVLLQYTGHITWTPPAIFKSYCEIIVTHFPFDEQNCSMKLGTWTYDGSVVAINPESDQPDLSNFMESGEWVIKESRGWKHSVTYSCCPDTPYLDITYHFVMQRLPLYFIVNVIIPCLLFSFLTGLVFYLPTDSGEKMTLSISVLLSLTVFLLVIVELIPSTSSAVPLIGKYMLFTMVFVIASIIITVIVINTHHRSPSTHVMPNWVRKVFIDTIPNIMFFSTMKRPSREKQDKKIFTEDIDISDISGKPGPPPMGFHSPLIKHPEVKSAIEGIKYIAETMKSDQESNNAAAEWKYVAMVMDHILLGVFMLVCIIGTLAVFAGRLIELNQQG
T3 sequence (P11230 24-501 partner): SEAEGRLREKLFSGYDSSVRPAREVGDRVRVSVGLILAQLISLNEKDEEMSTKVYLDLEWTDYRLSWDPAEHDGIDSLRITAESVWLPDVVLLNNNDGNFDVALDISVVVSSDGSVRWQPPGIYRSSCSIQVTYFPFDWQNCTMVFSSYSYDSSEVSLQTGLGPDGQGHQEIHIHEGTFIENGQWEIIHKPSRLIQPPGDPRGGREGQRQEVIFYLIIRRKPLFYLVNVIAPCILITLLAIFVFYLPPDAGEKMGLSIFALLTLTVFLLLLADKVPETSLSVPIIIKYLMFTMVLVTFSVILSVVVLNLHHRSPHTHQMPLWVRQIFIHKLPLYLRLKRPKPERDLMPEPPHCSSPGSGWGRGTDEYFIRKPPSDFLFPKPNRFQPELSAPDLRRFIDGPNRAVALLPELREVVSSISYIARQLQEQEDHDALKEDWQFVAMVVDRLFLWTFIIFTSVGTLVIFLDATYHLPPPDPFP
T3 sequence (Q04844 21-493): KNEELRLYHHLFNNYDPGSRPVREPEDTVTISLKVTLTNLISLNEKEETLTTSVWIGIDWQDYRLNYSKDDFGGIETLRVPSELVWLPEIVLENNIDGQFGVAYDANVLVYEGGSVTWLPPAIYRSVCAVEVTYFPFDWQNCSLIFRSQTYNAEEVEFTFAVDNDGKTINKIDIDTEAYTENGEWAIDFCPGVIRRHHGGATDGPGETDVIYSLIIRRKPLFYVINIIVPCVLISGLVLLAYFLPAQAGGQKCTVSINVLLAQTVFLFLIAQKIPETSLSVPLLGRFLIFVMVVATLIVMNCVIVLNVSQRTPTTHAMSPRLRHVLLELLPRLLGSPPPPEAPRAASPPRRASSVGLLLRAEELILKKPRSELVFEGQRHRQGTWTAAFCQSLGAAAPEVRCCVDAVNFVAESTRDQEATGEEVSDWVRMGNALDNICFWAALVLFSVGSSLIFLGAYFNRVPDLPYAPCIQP
T3 sequence (Q07001 22-517): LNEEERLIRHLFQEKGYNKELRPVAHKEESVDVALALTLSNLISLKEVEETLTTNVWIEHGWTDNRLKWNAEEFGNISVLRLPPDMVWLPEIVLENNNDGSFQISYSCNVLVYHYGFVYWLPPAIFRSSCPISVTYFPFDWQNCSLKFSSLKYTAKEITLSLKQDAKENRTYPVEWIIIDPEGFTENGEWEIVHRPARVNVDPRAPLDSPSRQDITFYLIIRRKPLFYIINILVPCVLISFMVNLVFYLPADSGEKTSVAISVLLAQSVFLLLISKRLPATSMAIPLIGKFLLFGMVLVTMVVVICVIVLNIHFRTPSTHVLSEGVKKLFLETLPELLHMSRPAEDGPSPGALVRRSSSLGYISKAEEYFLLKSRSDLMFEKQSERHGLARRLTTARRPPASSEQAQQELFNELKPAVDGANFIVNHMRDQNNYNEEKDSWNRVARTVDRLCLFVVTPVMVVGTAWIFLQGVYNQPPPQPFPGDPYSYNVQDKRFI
α7 nAChR, sequence (P36544 23-502): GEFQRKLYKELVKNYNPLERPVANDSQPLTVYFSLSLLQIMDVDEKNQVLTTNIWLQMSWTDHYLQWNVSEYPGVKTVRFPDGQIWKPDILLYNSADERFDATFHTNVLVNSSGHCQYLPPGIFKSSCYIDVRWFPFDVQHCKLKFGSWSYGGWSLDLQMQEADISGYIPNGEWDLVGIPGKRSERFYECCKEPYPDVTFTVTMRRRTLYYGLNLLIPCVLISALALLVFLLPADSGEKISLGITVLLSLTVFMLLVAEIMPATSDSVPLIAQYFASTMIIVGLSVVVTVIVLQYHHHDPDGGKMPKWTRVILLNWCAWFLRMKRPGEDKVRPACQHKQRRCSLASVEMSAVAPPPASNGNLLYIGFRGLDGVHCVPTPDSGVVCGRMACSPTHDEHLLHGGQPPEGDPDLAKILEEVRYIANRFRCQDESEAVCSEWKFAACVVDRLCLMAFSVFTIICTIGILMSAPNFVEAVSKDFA

Row | Molecule | α7 Imax (α7 nAChR) | α4β2 Activity (α4β2 nAChR [2]) | α4β2 Inhibition (α4β2 nAChR [3]) | α1β1εδ Activity [4] | α1β1εδ Inhibition [5] | 5HT3 Activity (5HT3 receptors [6]) | 5HT3 Inhibition (5HT3 receptors [7]) | α3β4 Imax (α3β4 nAChR) | other results
1 | O=C1NCC2(CN3CCC2CC3)O1 (single isomer, unassigned; (-)) [AR-R17779, (−)-Spiro[1-azabicyclo[2.2.2]octane-3,5′-oxazolidin-2′-one]] | – | – | – | – | – | – | – | – | Effects on 5HT3 Receptors (5HT3 receptors [1]): None
2 | OCCN1CCCCC1 [1-(2-hydroxyethyl)piperidine] | – | – | – | – | – | – | – | – | agonist activity on α7 (α7 nAChR; 300 µM, data not shown): inactive
3 | OCCN1CCCC1 [1-(2-hydroxyethyl)pyrrolidine] | – | – | – | – | – | – | – | – | agonist activity on α7 (α7 nAChR): inactive
4 | CC(=O)OCC[N+](C)(C)C [ACh, acetylcholine, reference compound] | 1.0 | – | – | – | – | – | – | – | α3β4 Imax (α3β4 nAChR; peak current, relative to ACh maximum (ACh constrained to 1)): 1.0
5 | C(=C1\CN2CCC1CC2)/c1ccccc1.Cl [BQNE, E-3-benzylidene-1-azoniabicyclo[2.2.2]-octane chloride] | 0.28 ± 0.01 | N | 77 ± 2% | N | 70 ± 7% | N | 94 ± 5% | <0.01 | selectivity classification (α7 nAChR): α7-selective
6 | C(=C1/CN2CCC1CC2)/c1ccccc1.Cl [BQNZ, (Z)-3-benzylidene-1-azoniabicyclo[2.2.2]octane chloride] | 0.11 ± 0.01 | ≈1% | 74 ± 6% | ≈7% | N.S. | N | 95 ± 4% | 0.10 ± 0.01 | EC50 (α7 nAChR): 7.3 ± 0.7 µM; agonist character at α3β4 (α3β4 nAChR): significant activation
7 | C[N+]1(C)CCCCC1 [Dimethyl piperidinium] | – | – | – | – | – | – | – | – | Effects on 5HT3 Receptors (5HT3 receptors [1]): Antagonist activity reported
8 | CC[N+]12CCC(CC1)CC2.[I-] [EQN, 1-ethyl-1-azoniabicyclo[2.2.2]octane iodide] | – | – | – | – | – | – | – | – | agonist character at α7 (α7 nAChR): weak partial agonist; mecamylamine-sensitive current, % of the total current (α7 nAChR): 58 ± 3%; agonist character at α3β4 (α3β4 nAChR): comparable with the current evoked in uninjected oocytes
9 | CC[N+](C)(C)C [ETMA, reference compound] | 1.0 ± 0.1 | ≤2% | 40 ± 9% | N | N.S. | N | N.S. | 0.78 ± 0.04 | EC50 (α7 nAChR; read-out: α7 EC50): 19 ± 2 µM; agonist character at α3β4 (α3β4 nAChR): partial agonists; EC50 (α3β4 nAChR; read-out: α3β4 EC50): 660 ± 90 µM
10 | C[N+]12CCC(CC1)CC2.[I-] [MQN, 1-methyl-1-azoniabicyclo[2.2.2]octane iodide] | 1.0 ± 0.1 | N | 72 ± 4% | N | N.S. | N | N.S. | 0.025 ± 0.006 | agonist character at α7 (α7 nAChR): fully effective; agonist character at α3β4 (α3β4 nAChR): essentially all activity was lost
11 | COc1ccc(/C=C2/CN3CCC2CC3)cc1.Cl [MeOBQNE, (E)-3-(4-methoxybenzylidene)-1-azoniabicyclo[2.2.2]-octane chloride] | 0.41 ± 0.03 | N | 81 ± 2% | N | 90 ± 2% | N | 94 ± 5% | <0.01 | –
12 | COc1ccc(/C=C2\CN3CCC2CC3)cc1.Cl [MeOBQNZ, (Z)-3-(4-methoxybenzylidene)-1-azoniabicyclo[2.2.2]octane chloride] | 0.09 ± 0.01 | N | 56 ± 4% | ≤1% | 76 ± 6% | N | 80 ± 16% | <0.01 | EC50 (α7 nAChR): 1.1 ± 0.8 µM
13 | C[N+]1(C)CCCC(O)C1 (centres unmarked) [N,N-dimethyl-3-piperidinol] | – | – | – | – | – | – | – | – | agonist activity on α7 (α7 nAChR): inactive
14 | O=C(N[C@H]1CN2CCC1CC2)c1cc2ccoc2cn1 [PHA-543,613, N-[(3R)-1-azabicyclo[2.2.2]oct-3-yl]furo[2,3-c]pyridine-5-carboxamide] | – | – | – | – | – | – | – | – | 5HT3 receptors, inhibitory activity at (5HT3 receptors [1]; ref Wishka et al., 2006): Inhibitory activity at ≈ 600 nM
15 | O=C(N[C@@H]1C[C@H]2CCN(C2)C1)c1cc2ccoc2cn1 [PHA-709829, N-[(3R,5R)-1-azabicyclo[3.2.1]oct-3-yl]furo[2,3-c]pyridine-5-carboxamide] | – | – | – | – | – | – | – | – | 5HT3 receptors, inhibitory activity at (5HT3 receptors [1]; ref Acker et al., 2008): Inhibitory activity at ≈ 300 nM
16 | C1CN2CCC1CC2 [QN, quinuclidine] | 1.03 ± 0.02 | ≈2% | 74 ± 5% | 3% | N.S. | N | N.S. | 0.64 ± 0.01 | Emax (α4β2 nAChR [2]; read-out: α4β2 response, % of the ACh maximal responses): 3.2 ± 0.7%; activation of muscle-type nAChRs [4]: detectable activation; EC50 (α7 nAChR): 7.2 ± 0.5 µM; agonist character at α7 (α7 nAChR): potent and fully efficacious agonist; selectivity classification (α7 nAChR): non-α7-selective; α7 activation at 300 µM (α7 nAChR): maximal activation; EC50 (α3β4 nAChR): 180 ± 10 µM; agonist character at α3β4 (α3β4 nAChR): partial agonist; α3β4 efficacy, % that of ACh (α3β4 nAChR): 64%; α3β4 response, % of the ACh maximum (α3β4 nAChR): 46 ± 2%
17 | C[N+](C)(C)C [TMA, tetramethyl-ammonium, reference compound] | 1.1 ± 0.1 | 19 ± 6% | N.S. | <2% | N.S. | N | N.S. | 0.55 ± 0.03 | activation of muscle-type nAChRs [4]: detectable activation; selectivity classification (α7 nAChR): non-α7-selective; EC50 (α7 nAChR; read-out: α7 EC50): 30 ± 3 µM; agonist character at α3β4 (α3β4 nAChR): partial agonists; EC50 (α3β4 nAChR; read-out: α3β4 EC50): 350 ± 190 µM
18 | CN1[C@@H]2CCC[C@H]1CC2 [Tropane] | – | – | – | – | – | – | – | – | Effects on 5HT3 Receptors (5HT3 receptors [1]): Neither agonist nor antagonist activity detected
19 | CN1[C@@H]2CC[C@H]1CC(=O)C2 [Tropinone] | – | – | – | – | – | – | – | – | Effects on 5HT3 Receptors (5HT3 receptors [1]): Neither agonist nor antagonist activity detected
20 | CC[N+](C)(C)CC [dEdMA, diethyldimethylammonium] | 0.95 ± 0.06 | N | 52 ± 5% | N | N.S. | N | N.S. | 0.06 ± 0.01 | selectivity classification (α7 nAChR): α7-selective agonists; EC50 (α7 nAChR; read-out: α7 EC50): 197 ± 37 µM; α3β4 efficacy, fold difference (versus ETMA) (α3β4 nAChR): greater than 10 fold
21 | quinuclidinone [QN-O] | 0.73 ± 0.04 | N | N.S. | N | N.S. | N | N.S. | ≥0.07± | selectivity classification (α7 nAChR): α7-selective agonists; α7 potency, fold lower than related agonists that lack the oxygen group (e.g., ETMA and QN) (α7 nAChR): at least 10 fold; EC50 (α7 nAChR; read-out: α7 EC50): 78 ± 11 µM; EC50 (α3β4 nAChR; read-out: α3β4 EC50): > 1000 µM
